From patent publication US9738682B2, “Compounds with a combined antioxidant activity against free radicals together with an anti-inflammatory action, and pharmaceutical and cosmetic compositions containing them for the treatment of skin and hair” (GIULIANI S.P.A., priority 2014, dated 2017) come the findings set out here.

For test [1], the system named is human keratinocytes cell line NCTC2544. In words: MTT assay with induced oxidative stress (1 mM H2O2). Type of test: cell-based. Conditions: NCTC-2544, 0.5 μM compound, 16 h pre-treatment, then 1 mM H2O2 for 90 minutes, read-out: % viability (cell viability compared to not stressed control cells). An excerpt:
In the intracellular environment, said formazan forms insoluble crystals to which the membranes are substantially impermeable: the molecule is therefore allowed to entry the cell, but not to exit it, if the molecule is correctly metabolized, i.e. if the electron transport chains are still metabolically active (that is equipped with an active reducing power).
This assay measures the viability of cells subjected to oxidative stress, and is therefore interpreted not only as an indicator of the antioxidant activity but also as an indicator of protection from oxidative stress and enhancement of cellular antioxidant defenses, in general terms being the test non-specific.
With the transformation of MTT, a change in color of the molecule from yellow to dark blue-violet is seen; therefore, to estimate the number of active mitochondria and, therefore, the number of viable cells in the sample, a colorimetric assay with a spectrophotometer read-out is used.
The protocol described below is used as a screening tool for the activity of the compounds of the invention object of the study, after induction of oxidative stress in the human keratinocytes cell line NCTC2544 through application of 1 mM hydrogen peroxide, according to a specific bibliographic reference (Rajapakse et al., 2004). The assay was conducted according to the method described by Coda and collaborators, with some modifications
The NCTC 2544 human keratinocytes were seeded in a 96-well plate at a density of 5*10^4 cells/well and incubated at 37° C. and 5% CO2, until reaching approximately 80% confluence.
The cells were then pretreated for 16 hours with the compounds of the invention to be tested in different concentrations, and with α-tocopherol, tested at the […] and 1 mM concentrations, as a reference. Cells treated with 1 mM H2O2 were used as negative control; however, cells maintained in culture in complete medium, served as the positive control.
At the end of the 16 hours of pre-treatment, the cells were washed with 1×PBS and incubated for 90 minutes with a 1 mM H2O2 solution (Sigma-Aldrich, St. Louis, Mo., USA) in serum-free medium at 37° C. and 5% CO2, in the dark.
Once the oxidative stress induction phase was completed, the evaluation of cell viability of the various samples was carried out, according to the method previously described (MTT assay).
The data were expressed as the percentage of cell viability compared to not stressed control cells (ctr), according to the following formula: % cell viability/ctr=(Abs sample/Abs ctr)*100
All analyzes were performed at least twice in duplicate.

Test [2] has as its system TNF-α gene expression in NCTC 2544 human keratinocytes. In words: In vitro inflammation test: LPS-induced TNF-α gene expression by qRT-PCR. It counts as cell-based. Conditions: 5 μM compound, LPS 5 μg/ml, 24 h, NCTC 2544 keratinocytes. The method, then: A immortalized line of NCTC 2544 human keratinocytes (Perry V. P. et al., 1957), kept in culture in sterile flasks ([…]), incubated at 37° C. in a humid atmosphere with 5% CO2 in MEM (Minimum Essential Medium) culture medium added with 10% fetal bovine serum (FBS), 2 mM glutamine, 1% non-essential amino acids, in the presence of 1% of penicillin and streptomycin, is used.
When the cells (NCTC 2544 human keratinocytes) reached approximately 80% confluence, they were detached with trypsin/EDTA and seeded at a density of 1×10^6 cells/ml in 12-well plates, and then incubated at 37° C., 5% CO2 (24 h). […]
The activity of the compounds under study on TNF-α gene expression was assessed by relative quantitative RT-PCR (quantitative reverse transcription-polymerase chain reaction-qRT-PCR). […]
With the use of a spectrophotometer (Jenway UV/VIS MOD: 6715, BS-6715B0), the μg/mL concentrations of the total RNA extracted were calculated, at a wavelength of 260 nm.
Finally, the RNA integrity (2 μg/mL) was evaluated by means of an electrophoretic run on 1% agarose gel.
The RNA extracted and quantified was diluted at a concentration of 2 μg/mL and reverse-transcribed into cDNA. […]

SMILES strings stand for the structures. Where a name gives a salt, the structure may show the parent alone.

The viability is a read-out of living cells in per cent, often relative to untreated cells.

On to `C/C=C/C=C/C=C/C(=O)Oc1cc(/C=C/c2ccc(O)cc2)cc(OC(=O)/C=C/C=C/C=C/C)c1` [resveratrol di-octatrienoate, Resveratrol 3,5-di-octatrienoate], for which, in test [1], the viability at 0.5 µM is 120%.
`Oc1ccc(C=Cc2cc(O)cc(O)c2)cc1` [resveratrol]: the viability at 0.5 µM in test [1] is roughly 75%. In addition, the “anti-inflammatory activity (TNF-α assay, FIG. 2)” value in test [2] was “proves not to have”.
As to `C/C=C/C=C/C=C/C(=O)O` [octatrienoic acid arginine salt, Octatrienoic acid arginine salt], the viability at 0.5 µM in test [1] was found to be 91.5%.
The same measure, in the same setting: for `CC=CC=CC=CC(=O)O` [octatrienoic acid, 2,4,6-octatrienoic acid] the value was roughly 75%.
